Values after ≈ are worked out from the molar mass of the structure shown.
Tests used:
[1] = tested on: Enterococcus faecalis; experiment: Antibacterial activity against Enterococcus faecalis ATCC 51299 assessed as reduction in bacterial growth; format: functional
[2] = tested on: Escherichia coli; experiment: Antibacterial activity against Escherichia coli ATCC 35218 assessed as reduction in bacterial growth; format: functional
[3] = tested on: Escherichia coli; experiment: Antibacterial activity against Escherichia coli NCTC 13353 assessed as reduction in bacterial growth; format: functional
[4] = tested on: Escherichia coli; experiment: Antibacterial activity against Escherichia coli 15-3 overexpressing extended spectrum beta-lactamases assessed as reduction in bacterial growth; format: functional
[5] = tested on: Acinetobacter baumannii; experiment: Antibacterial activity against Multidrug resistant Acinetobacter baumannii AR 15-4 assessed as reduction in bacterial growth; format: functional
[6] = tested on: Acinetobacter baumannii; experiment: Antibacterial activity against Multidrug resistant Acinetobacter baumannii AR 15-3 assessed as reduction in bacterial growth in the presence of Avibactam; format: functional
[7] = tested on: Acinetobacter baumannii; experiment: Antibacterial activity against Carbapenem- resistant Acinetobacter baumannii 17-3 assessed as reduction in bacterial growth; format: functional
[8] = tested on: Acinetobacter baumannii; experiment: Antibacterial activity against Carbapenem- resistant Acinetobacter baumannii 17-6 assessed as reduction in bacterial growth; format: functional
[9] = tested on: Acinetobacter baumannii; experiment: Antibacterial activity against Carbapenem- resistant Acinetobacter baumannii 17-9 assessed as reduction in bacterial growth; format: functional
[10] = tested on: Acinetobacter baumannii; experiment: Antibacterial activity against Carbapenem- resistant Acinetobacter baumannii 17-10 assessed as reduction in bacterial growth; format: functional
[11] = tested on: Acinetobacter baumannii; experiment: Antibacterial activity against Carbapenem- resistant Acinetobacter baumannii 17-11 assessed as reduction in bacterial growth; format: functional
[12] = tested on: Acinetobacter baumannii; experiment: Antibacterial activity against Carbapenem- resistant Acinetobacter baumannii 17-13 assessed as reduction in bacterial growth; format: functional
[13] = tested on: Klebsiella pneumoniae; experiment: Antibacterial activity against Carbapenem- resistant Klebsiella pneumoniae KR 15-4 assessed as reduction in bacterial growth; format: functional
[14] = tested on: Klebsiella pneumoniae; experiment: Antibacterial activity against Carbapenem- resistant Klebsiella pneumoniae KR 15-7 assessed as reduction in bacterial growth; format: functional
[15] = tested on: Klebsiella pneumoniae; experiment: Antibacterial activity against Carbapenem- resistant Klebsiella pneumoniae KR 15-8 assessed as reduction in bacterial growth; format: functional
[16] = tested on: Klebsiella pneumoniae; experiment: Antibacterial activity against Carbapenem- resistant Klebsiella pneumoniae KR 15-12 assessed as reduction in bacterial growth; format: functional
[17] = tested on: Klebsiella pneumoniae; experiment: Antibacterial activity against Carbapenem- resistant Klebsiella pneumoniae KR 15-13 assessed as reduction in bacterial growth; format: functional
[18] = tested on: Pseudomonas aeruginosa; experiment: Antibacterial activity against Carbapenem- resistant Pseudomonas aeruginosa 17-1 assessed as reduction in bacterial growth; format: functional
[19] = tested on: Klebsiella pneumoniae; experiment: Antibacterial activity against Carbapenem- sensitive Klebsiella pneumoniae 17-1 overexpressing extended spectrum beta-lactamases assessed as reduction in bacterial growth; format: functional
[20] = tested on: Klebsiella pneumoniae; experiment: Antibacterial activity against Carbapenem- sensitive Klebsiella pneumoniae 17-2 overexpressing extended spectrum beta-lactamases assessed as reduction in bacterial growth; format: functional
[21] = tested on: Klebsiella pneumoniae; experiment: Antibacterial activity against Carbapenem- sensitive Klebsiella pneumoniae 17-6 overexpressing extended spectrum beta-lactamases assessed as reduction in bacterial growth; format: functional
[22] = tested on: Klebsiella pneumoniae; experiment: Antibacterial activity against Carbapenem- sensitive Klebsiella pneumoniae 17-9 overexpressing extended spectrum beta-lactamases assessed as reduction in bacterial growth; format: functional
[23] = tested on: Klebsiella pneumoniae; experiment: Antibacterial activity against Carbapenem- sensitive Klebsiella pneumoniae 17-13 overexpressing extended spectrum beta-lactamases assessed as reduction in bacterial growth; format: functional
[24] = tested on: Klebsiella pneumoniae; experiment: Antibacterial activity against Carbapenem- sensitive Klebsiella pneumoniae 17-15 overexpressing extended spectrum beta-lactamases assessed as reduction in bacterial growth; format: functional
[25] = tested on: Klebsiella pneumoniae; experiment: Antibacterial activity against ESBLs negative Carbapenem-sensitive Klebsiella pneumoniae 17-17 assessed as reduction in bacterial growth; format: functional
[26] = tested on: Klebsiella pneumoniae; experiment: Antibacterial activity against ESBLs negative Carbapenem-sensitive Klebsiella pneumoniae 17-20 assessed as reduction in bacterial growth; format: functional
[27] = tested on: Escherichia coli; experiment: Antibacterial activity against ESBLs positive Carbapenem-sensitive Escherichia coli 17-5 assessed as reduction in bacterial growth; format: functional
[28] = tested on: Escherichia coli; experiment: Antibacterial activity against ESBLs positive Carbapenem-sensitive Escherichia coli 17-6 assessed as reduction in bacterial growth; format: functional
[29] = tested on: Escherichia coli; experiment: Antibacterial activity against ESBLs positive Carbapenem-sensitive Escherichia coli 17-10 assessed as reduction in bacterial growth; format: functional
[30] = tested on: Escherichia coli; experiment: Antibacterial activity against ESBLs positive Carbapenem-sensitive Escherichia coli 17-12 assessed as reduction in bacterial growth; format: functional
[31] = tested on: Escherichia coli; experiment: Antibacterial activity against ESBLs positive Carbapenem-sensitive Escherichia coli 17-15 assessed as reduction in bacterial growth; format: functional
[32] = tested on: Escherichia coli; experiment: Antibacterial activity against ESBLs positive Carbapenem-sensitive Escherichia coli 17-17 assessed as reduction in bacterial growth; format: functional
[33] = tested on: Escherichia coli; experiment: Antibacterial activity against ESBLs negative Carbapenem-sensitive Escherichia coli 17-7 assessed as reduction in bacterial growth; format: functional
[34] = tested on: Enterobacter cloacae; experiment: Antibacterial activity against Enterobacter cloacae 17-1 assessed as reduction in bacterial growth; format: functional
[35] = tested on: Enterobacter cloacae; experiment: Antibacterial activity against Enterobacter cloacae 17-3 assessed as reduction in bacterial growth; format: functional
[36] = tested on: Enterobacter cloacae; experiment: Antibacterial activity against Enterobacter cloacae 17-4 assessed as reduction in bacterial growth; format: functional
[37] = tested on: Klebsiella aerogenes; experiment: Antibacterial activity against Enterobacter aerogenes 17-2 assessed as reduction in bacterial growth; format: functional
[38] = tested on: Klebsiella aerogenes; experiment: Antibacterial activity against Enterobacter aerogenes 17-5 assessed as reduction in bacterial growth; format: functional
[39] = tested on: Klebsiella aerogenes; experiment: Antibacterial activity against Enterobacter aerogenes 15-3 assessed as reduction in bacterial growth; format: functional
[40] = tested on: Klebsiella aerogenes; experiment: Antibacterial activity against Enterobacter aerogenes 15-6 assessed as reduction in bacterial growth; format: functional
[41] = tested on: Pseudomonas aeruginosa; experiment: Antibacterial activity against Carbapenem- sensitive Pseudomonas aeruginosa 17-7 assessed as reduction in bacterial growth; format: functional
[42] = tested on: Pseudomonas aeruginosa; experiment: Antibacterial activity against Carbapenem- sensitive Pseudomonas aeruginosa 17-22 assessed as reduction in bacterial growth; format: functional
[43] = tested on: Klebsiella pneumoniae; experiment: Antibacterial activity against ESBLs positive Carbapenem-sensitive Klebsiella pneumoniae 17-8 assessed as reduction in bacterial growth in the presence of Avibactam; format: functional
[44] = tested on: Klebsiella pneumoniae; experiment: Antibacterial activity against ESBLs negative Carbapenem-sensitive Klebsiella pneumoniae 17-17 assessed as reduction in bacterial growth in the presence of Avibactam; format: functional
[45] = tested on: Escherichia coli; experiment: Antibacterial activity against ESBLs positive Carbapenem-sensitive Escherichia coli 17-6 assessed as reduction in bacterial growth in the presence of Avibactam; format: functional
[46] = tested on: Escherichia coli; experiment: Antibacterial activity against ESBLs positive Carbapenem-sensitive Escherichia coli 17-11 assessed as reduction in bacterial growth in the presence of Avibactam; format: functional
[47] = tested on: Escherichia coli; experiment: Antibacterial activity against ESBLs positive Carbapenem-sensitive Escherichia coli 17-15 assessed as reduction in bacterial growth in the presence of Avibactam; format: functional
[48] = tested on: Pseudomonas aeruginosa; experiment: Bactericidal activity against Carbapenem- resistant Pseudomonas aeruginosa 17-8 assessed as reduction in bacterial growth in the presence of avibactam; format: functional
[49] = tested on: Klebsiella pneumoniae; experiment: Bactericidal activity against ESBLs positive Carbapenem-sensitive Klebsiella pneumoniae 17-12 assessed as reduction in bacterial growth in the presence of avibactam; format: functional
[50] = tested on: Klebsiella aerogenes; experiment: Bactericidal activity against Enterobacter aerogenes 17-3 assessed as reduction in bacterial growth in the presence of avibactam; format: functional
[51] = tested on: Pseudomonas aeruginosa; experiment: Bactericidal activity against carbapenem-sensitive Pseudomonas aeruginosa 17-9 assessed as reduction in bacterial growth in the presence of avibactam; format: functional
[52] = tested on: Acinetobacter baumannii; experiment: Antibacterial activity against Carbapenem- resistant Acinetobacter baumannii 17-2 assessed as reduction in bacterial growth

Nc1nc(/C(=N/OCc2cc(=O)c(O)cn2O)C(=O)N[C@@H]2C(=O)N3C(C(=O)O)=CCS[C@H]23)cs1
MIC [1]: > 64 µg/mL | MIC [2]: 0.5 µg/mL (≈ 0.983 µM) | MIC [3]: > 64 µg/mL | MIC [4]: 64 µg/mL (≈ 126 µM) | MIC [5]: > 64 µg/mL | MIC [6]: 8 µg/mL | MIC [7]: > 64 µg/mL | MIC [8]: > 64 µg/mL | MIC [9]: > 64 µg/mL | MIC [10]: > 64 µg/mL | MIC [11]: > 64 µg/mL | MIC [12]: > 64 µg/mL | MIC [13]: > 64 µg/mL | MIC [14]: > 64 µg/mL | MIC [15]: > 64 µg/mL | MIC [16]: > 64 µg/mL | MIC [17]: > 64 µg/mL | MIC [18]: 32 µg/mL (≈ 62.9 µM) | MIC [19]: 64 µg/mL (≈ 126 µM) | MIC [20]: 2 µg/mL (≈ 3.93 µM) | MIC [21]: 0.25 µg/mL (≈ 0.492 µM) | MIC [22]: 64 µg/mL (≈ 126 µM) | MIC [23]: 1 µg/mL (≈ 1.97 µM) | MIC [24]: 64 µg/mL (≈ 126 µM) | MIC [25]: 0.125 µg/mL (≈ 0.246 µM) | MIC [26]: 0.06 µg/mL (≈ 0.118 µM) | MIC [27]: 64 µg/mL (≈ 126 µM) | MIC [28]: 32 µg/mL (≈ 62.9 µM) | MIC [29]: 4 µg/mL (≈ 7.87 µM) | MIC [30]: 4 µg/mL (≈ 7.87 µM) | MIC [31]: > 64 µg/mL | MIC [32]: > 64 µg/mL | MIC [33]: 2 µg/mL (≈ 3.93 µM) | MIC [34]: 1 µg/mL (≈ 1.97 µM) | MIC [35]: 64 µg/mL (≈ 126 µM) | MIC [36]: 1 µg/mL (≈ 1.97 µM) | MIC [37]: 64 µg/mL (≈ 126 µM) | MIC [38]: 64 µg/mL (≈ 126 µM) | MIC [39]: > 64 µg/mL | MIC [40]: 16 µg/mL (≈ 31.5 µM) | MIC [41]: 0.25 µg/mL (≈ 0.492 µM) | MIC [42]: 1 µg/mL (≈ 1.97 µM) | MIC [43]: 0.5 µg/mL | MIC [44]: 0.125 µg/mL | MIC [45]: 0.5 µg/mL | MIC [46]: 4 µg/mL | MIC [47]: 0.25 µg/mL | MBC [48]: 32 µg/mL | MBC [49]: 0.125 µg/mL | MBC [50]: 0.5 µg/mL | MBC [51]: 4 µg/mL | MIC [52]: > 64 µg/mL

Source: ChEMBL document CHEMBL4813981, “Synthesis and in vitro antibacterial activity of new aminothiazole-oximepiperidone cephalosporins” (2021)
